Test results reported in the NIST ThermoML archive (doi:10.1016/j.jct.2004.09.014).
± gives the expanded uncertainty stated by the source.

Legend:
[1] = 101.3 kPa, Liquid
[2] = xn = mol fraction of the nth substance listed; settings: 101.3 kPa, Liquid

| Compound | mass density ([1]; 293.15 K) [kg/m3] | mass density ([1]; 298.15 K) [kg/m3] | mass density ([1]; 303.15 K) [kg/m3] | mass density ([1]; 308.15 K) [kg/m3] | mass density ([1]; 313.15 K) [kg/m3] | also measured |
| --- | --- | --- | --- | --- | --- | --- |
| COCCOCCO [2-(2-methoxyethoxy)ethanol] | 1020.8 ± 1.4 | 1016.4 ± 1.4 | 1011.83 ± 1.5 | 1007.69 ± 1.5 | 1003.22 ± 1.5 |  |
| COCCOCCOCCO [2-[2-(2-methoxyethoxy)ethoxy]ethanol] | 1047.29 ± 1.9 | 1042.97 ± 1.9 | 1038.65 ± 1.9 | 1034.33 ± 1.9 | 1030.01 ± 2 |  |
| CCOC(C)(C)C [2-ethoxy-2-methylpropane] | 741.11 ± 0.61 | 735.59 ± 0.65 | 730.85 ± 0.69 | 725.98 ± 0.73 | 720.69 ± 0.77 |  |
| CCOC(C)(C)C [2-ethoxy-2-methylpropane] + COCCOCCO |  |  |  |  |  | mass density ([2]; 293.15 K, x1 = 1): 741.11 ± 0.61 kg/m3; mass density ([2]; 298.15 K, x1 = 1): 735.59 ± 0.65 kg/m3; mass density ([2]; 303.15 K, x1 = 1): 730.85 ± 0.69 kg/m3; mass density ([2]; 308.15 K, x1 = 1): 725.98 ± 0.73 kg/m3; mass density ([2]; 313.15 K, x1 = 1): 720.69 ± 0.77 kg/m3 |
| CCOC(C)(C)C [2-ethoxy-2-methylpropane] + COCCOCCOCCO |  |  |  |  |  | mass density ([2]; 293.15 K, x1 = 1): 741.11 ± 0.61 kg/m3; mass density ([2]; 298.15 K, x1 = 1): 735.59 ± 0.65 kg/m3; mass density ([2]; 303.15 K, x1 = 1): 730.85 ± 0.69 kg/m3; mass density ([2]; 308.15 K, x1 = 1): 725.98 ± 0.73 kg/m3; mass density ([2]; 313.15 K, x1 = 1): 720.69 ± 0.77 kg/m3 |
| COCCO [2-methoxyethan-1-ol] | 964.88 ± 1 | 960.29 ± 1.1 | 955.76 ± 1.1 | 951.1 ± 1.1 | 946.54 ± 1.1 |  |
| COCCO [2-methoxyethan-1-ol] + CCOC(C)(C)C |  |  |  |  |  | mass density ([2]; 293.15 K, x2 = 0): 964.88 ± 1 kg/m3; mass density ([2]; 298.15 K, x2 = 0): 960.29 ± 1.1 kg/m3; mass density ([2]; 303.15 K, x2 = 0): 955.76 ± 1.1 kg/m3; mass density ([2]; 308.15 K, x2 = 0): 951.1 ± 1.1 kg/m3; mass density ([2]; 313.15 K, x2 = 0): 946.54 ± 1.1 kg/m3 |
